What was measured:
[1] = test system: multiple myeloma cell line U266B1; test: U266 Cell Viability Assay; type: cell-based, human; conditions: Homo sapiens, U-266; 48 hr, U266, Celltiter-Glo
Outline: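 U266B1 myeloma cells in RPMI 1640 with 10% FBS were treated with compound dilutions for 48 h at 37° C, 5% CO2. Viability was read as CellTiter-Glo luminescence. Data for structures drawn without stereochemistry refer to stereoisomer mixtures.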

[2] = In Vitro Microsome Stability Assay (monkey); type: in vitro ADME; conditions: monkey liver microsomes, 30 min w/ NADPH
Outline: (§1)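 The value reported is the percentage of parent left after 30 min, calculated from analyte/IS peak-area ratios relative to time zero by LC-MS/MS. Incubations ran at 37° C in 0.1 M potassium phosphate with NADPH and microsomes (stock 20 mg/mL), with compound added from a 0.25 mM DMSO stock. Acetonitrile containing IS stopped the reactions.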

[3] = In Vitro Microsome Stability Assay (human); type: in vitro ADME; conditions: human liver microsomes, 30 min w/ NADPH
Outline: as §1

[4] = test system: multiple myeloma cell line NCl-H929; test: H929 Cell Viability Assay; type: cell-based, human; conditions: Homo sapiens, NCI-H929, 48 h, H929, Celltiter-Glo
Outline: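 NCI-H929 myeloma cells in RPMI 1640 with 10% FBS were treated with compound dilutions for 48 h at 37 °C, and viability was then read by CellTiter-Glo luminescence. Compounds drawn without stereochemistry were tested as stereoisomer mixtures.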

[5] = In Vitro Microsome Stability Assay (mouse); type: in vitro ADME; conditions: mouse liver microsomes, 30 min w/ NADPH
Outline: as §1

[6] = test system: full length TNFα (amino acids 1-233) fused to Gaussia Luciferase; test: Dox Induced TNFα-FL-Gluc Assay; type: cell-based; conditions: 24 hr, Dox inducible, 293FRT/TO cells; read-out: 24 hr Dox Inducible TNFaFLGluc 293FRT/TO: Mean IC50
Outline: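 Stable Flp-In 293 T-REx line expressing doxycycline-inducible full-length TNFα fused to Gaussia luciferase; cells plated the day before, then treated with compound dilutions in doxycycline-containing medium at 37° C, 5% CO2. Unspecified stereocentres mean stereoisomer mixtures were tested.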

[7] = test system: full length IL-2 (amino acids 1-153) fused to Gaussia Luciferase; test: Dox Induced IL2-FL-Gluc Assay; type: cell-based; conditions: 24 hr, Dox inducible, 293FRT/TO cells; read-out: 24 hr Dox Inducible IL2FLGluc 293FRT/TO: Mean IC50
Outline: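 Flp-In 293 T-REx stable line expressing full-length IL-2 (aa 1-153) with C-terminal Gaussia luciferase fusion under doxycycline-inducible control. Cells plated the day before; compound dilutions added in DMSO/media containing doxycycline, incubated at 37° C, 5% CO2.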

[8] = In Vitro Microsome Stability Assay (rat); type: in vitro ADME; conditions: rat liver microsomes, 30 min w/ NADPH
Outline: as §1

[9] = test system: PD1 signal sequence plus 10 amino acids fused to Gaussia Luciferase (PD1-ss+10aa/Gaussia Luciferase); test: Dox Induced PD1-ss-Gluc Assay; type: cell-based; conditions: 24 hr, Dox inducible, 293FRT/TO cells; read-out: 24 hr Dox Inducible PD1ssGluc 293FRT/TO: Mean IC50
Outline: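 Stable Flp-In 293 T-REx line expressing the fusion under tetracycline-inducible control, plated the day before assay. Compound dilutions added with doxycycline and incubated at 37 °C, 5% CO2; unspecified stereocentres mean data refer to stereoisomer mixtures.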

| Compound | EC50 [1] [nM] | Liver Microsome Stability-% Left after 30 min w/ NADPH (%) Monkey [2] [%] | Liver Microsome Stability-% Left after 30 min w/ NADPH (%) Human [3] [%] | EC50 [4] [nM] | Liver Microsome Stability-% Left after 30 min w/ NADPH (%) Mouse [5] [%] | IC50 [6] [nM] | IC50 [7] [nM] | Liver Microsome Stability-% Left after 30 min w/ NADPH (%) Rat [8] [%] | IC50 [9] [nM] |
| --- | --- | --- | --- | --- | --- | --- | --- | --- | --- |
| C[C@H]1CN(S(=O)(=O)c2cccc(N(C)C)c2)CCCN(CC2CCCCC2)CCCN(S(=O)(=O)N2CCc3cc(Cl)ccc3C2)C1 [A168, 3-{[(3S)-5-[(6-chloro-1,2,3,4-tetrahydroisoquinolin-2-yl)sulfonyl]-9-(cyclohexylmethyl)-3-methyl-1,5,9-triazacyclododecan-1-yl]sulfonyl}-N,N-dimethylaniline] | > 25000 | 73 | 25.7 | > 25000 | 42 | > 25000 | 1140 | 42.1 | 1490 |
| C[C@H]1CN(S(=O)(=O)c2ccc(N(C)C)cc2)CCCN(CC2CC(F)(F)C2)CCCN(S(=O)(=O)N2CCc3cc(Cl)ccc3C2)C1 [A169, 4-{[(3S)-5-[(6-chloro-1,2,3,4-tetrahydroisoquinolin-2-yl)sulfonyl]-9-[(3,3-difluorocyclobutyl)methyl]-3-methyl-1,5,9-triazacyclododecan-1-yl]sulfonyl}-N,N-dimethylaniline] | > 25000 | 4.23 | 34.7 | 3270 | 22.5 | 1050 | 192 | 13.1 | 81.5 |
| CC1c2ccccc2CCN1S(=O)(=O)N1CCCN(CC2CCCCC2)CCCN(S(=O)(=O)c2ccc(N(C)C)cc2)C[C@H](C)C1 (stereo partly drawn) [A170, 4-{[(3S)-9-(cyclohexylmethyl)-3-methyl-5-[(1-methyl-1,2,3,4-tetrahydroisoquinolin-2-yl]sulfonyl]-1,5,9-triazacyclododecan-1-yl]sulfonyl}-N,N-dimethylaniline] | > 25000 | 1.37 | 7.2 | 1780 | 3.65 | 798 | 134 | 10.8 | 56.1 |
| C[C@H]1CN(S(=O)(=O)Cc2ccccc2)CCCN(CC2CCCCC2)CCCN(S(=O)(=O)N2CCc3cc(Cl)ccc3C2)C1 [A171, 6-chloro-2-{[(3S)-9-(cyclohexylmethyl)-3-methyl-5-phenylmethanesulfonyl-1,5,9-triazacyclododecan-1-yl]sulfonyl}-1,2,3,4-tetrahydroisoquinoline] | > 25000 | 0.26 | 0.60 | > 25000 | 0.91 | > 25000 | > 25000 | 0.90 | > 25000 |
| CC1Cc2ccccc2CN1S(=O)(=O)N1CCCN(CC2CCCCC2)CCCN(S(=O)(=O)c2ccc(N(C)C)cc2)C[C@H](C)C1 (stereo partly drawn) [A172, 4-{[(3S)-9-(cyclohexylmethyl)-3-methyl-5-[(3-methyl-1,2,3,4-tetrahydroisoquinolin-2-yl]sulfonyl]-1,5,9-triazacyclododecan-1-yl]sulfonyl}-N,N-dimethylaniline] | > 25000 | 2.63 | 3.46 | 1750 | 3.65 | 436 | 66.4 | 2.23 | 29.2 |
| C[C@H]1CN(S(=O)(=O)c2ccc(N(C)C)cc2)CCCN(CC2CCCCC2)CCCN(S(=O)(=O)N2CCN(c3ccccc3OC(F)(F)F)CC2)C1 [A173, 4-{[(3S)-9-(cyclohexylmethyl)-3-methyl-5-({4-[2-(trifluoromethoxy)phenyl]piperazin-1-yl}sulfonyl)-1,5,9-triazacyclododecan-1-yl]sulfonyl}-N,N-dimethylaniline] | > 25000 | 55.9 | 56.1 | > 25000 | 49.2 | 5640 | 248 | 53.8 | 78.8 |
| COc1c(N2CCN(S(=O)(=O)N3CCCN(CC4CCCCC4)CCCN(S(=O)(=O)c4ccc(N(C)C)cc4)C[C@H](C)C3)CC2)ccc(F)c1F [A174, 4-{[(3S)-9-(cyclohexylmethyl)-5-{[4-(3,4-difluoro-2-methoxyphenyl)piperazin-1-yl]sulfonyl}-3-methyl-1,5,9-triazacyclododecan-1-yl]sulfonyl}-N,N-dimethylaniline] | > 25000 | 28.4 | 41.7 | 1860 | 36.9 | 566 | 53.3 | 44.4 | 15.8 |
| COc1c(F)cccc1N1CCN(S(=O)(=O)N2CCCN(CC3CCCCC3)CCCN(S(=O)(=O)c3ccc(N(C)C)cc3)C[C@H](C)C2)CC1 [A175, 4-{[(3S)-9-(cyclohexylmethyl)-5-{[4-(3-fluoro-2-methoxyphenyl)piperazin-1-yl]sulfonyl}-3-methyl-1,5,9-triazacyclododecan-1-yl]sulfonyl}-N,N-dimethylaniline] | > 25000 | 2.27 | 4.26 | 1440 | 6.73 | 393 | 40.4 | 6.28 | 9.35 |
| COc1cc(F)ccc1C1CN(S(=O)(=O)N2CCCN(CC3CCCCC3)CCCN(S(=O)(=O)c3ccc(N(C)C)cc3)C[C@H](C)C2)C1 [A178, 4-{[(3S)-9-(cyclohexylmethyl)-5-{[3-(4-fluoro-2-methoxyphenyl)azetidin-1-yl]sulfonyl}-3-methyl-1,5,9-triazacyclododecan-1-yl]sulfonyl}-N,N-dimethylaniline] | > 25000 | 25.8 | 24.0 | > 25000 | 22.8 | 4820 | 255 | 29.2 | 135 |
| C[C@H]1CN(S(=O)(=O)c2ccc3oncc3c2)CCCN(CC2CCCCC2)CCCN(S(=O)(=O)N2CCc3cc(Cl)ccc3C2)C1 [A180] | > 25000 | 0.08 | 0.80 | 20200 | 0.44 | > 25000 | 13800 | 1.97 | 2740 |
| C[C@H]1CN(S(=O)(=O)c2ccc(N(C)C)cc2)CCCN(CC2CCCCC2)CCCN(S(=O)(=O)N2CCc3c(Cl)cccc3C2)C1 [A181, 4-{[(3S)-5-[(5-chloro-1,2,3,4-tetrahydroisoquinolin-2-yl)sulfonyl]-9-(cyclohexylmethyl)-3-methyl-1,5,9-triazacyclododecan-1-yl]sulfonyl}-N,N-dimethylaniline] | > 25000 | 27.9 | 23.3 | 1480 | 17.1 | 984 | 122 | 22.0 | 38.7 |

From patent publication US11578055B2, “Triazacyclododecansulfonamide (“TCD”)-based protein secretion inhibitors” (KEZAR LIFE SCIENCES, priority 2018, dated 2023)
